Assay results as given in ChEMBL document CHEMBL1201862, “PubChem BioAssay data set” (2004).
Active and inactive are the calls of the source.

Key:
[1] = biological target: DNA damage-inducible transcript 3 protein (Mus musculus, UniProt P35639); format: functional, Cricetulus griseus
[2] = biological target: Genome polyprotein (dengue virus type 2, UniProt P29990); assay: Dengue-2 NS5 methyltransferase inhibitors, primary screen, biochemical, confirmation dose response (AID 588689); format: functional
[3] = biological target: X-box-binding protein 1 (Homo sapiens, UniProt P17861); format: functional, Cricetulus griseus;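 note: confirmatory dose-response counter-screen serving a CHOP assay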
[4] = Luminescence Cell-Based Dose Response HTS to Identify Inhibitors of Luciferase Translation or Activity in H4-C Neuroglioblastoma Cells. [Related pubchem assays: 1813 (Primary HTS), 1827 (Project Summary)]; format: functional
[5] = Luminescence Cell-Based Dose Response HTS to Identify Activators of 5'UTR Stem-Loop Driven Prion Protein mRNA Translation in H4-C Neuroglioblastoma Cells. [Related pubchem assays: 1829 (Project Summary), 1814 (Primary HTS)]; format: functional
[6] = Luminescence Cell-Based Dose HTS Response to Identify Inhibitors of 5'UTR Stem-Loop Driven Prion Protein mRNA Translation in H4-C Neuroglioblastoma Cells. [Related pubchem assays (depositor defined):AID1814, AID1827]; format: functional
[7] = Luminescence Cell-Based Dose Retest to Confirm Activators of 5'UTR Stem-Loop Driven Alpha-Synuclein mRNA Translation in H4 Neuroglioblastoma Cells. [Related pubchem assays (depositor defined):AID1813, AID1829]; format: functional
[8] = Luminescence Cell-Based Dose Response HTS to Identify Activators of Luciferase Translation or Activity in H4-C Neuroglioblastoma Cells. [Related pubchem assays: 1829 (Project Summary), 1814 (Primary HTS)]; format: functional
[9] = Luminescence Cell-Based Dose Confirmation HTS to Identify Inhibitors of 5'UTR Stem-Loop Driven Alpha-Synuclein mRNA Translation in H4 Neuroglioblastoma Cells. [Related pubchem assays: 1827 (Project Summary), 1813 (Primary HTS)]; format: functional
[10] = biological target: Troponin, cardiac muscle (Homo sapiens, UniProt P19429+P45379+P63316); assay: Fluorescence-based biochemical high throughput dose response assay for activators of the calcium sensitivity of cardiac Regulated Thin Filaments (RTF). [Related pubchem assays (depositor defined):AID493008, AID493018, AID504382, AID504383]; format: protein-complex assay
[11] = tested on: Salmon testes DNA; assay: DNA intercalators displacing acridine orange, dose response, artefact control for KSHV LANA DNA-binding inhibitor project, biochemical, fluorescence polarization, cherry-picked samples, set 2 (AID 504727); set-up: species or system Salmonidae
[12] = biological target: Keap1/Nrf2 (Homo sapiens, UniProt Q14145); assay: Keap1-Nrf2 protein-protein interaction inhibitors, dose response, biochemical, fluorescence polarization, cherry-picked samples (AID 588683)
[13] = biological target: ORF 73 (Human herpesvirus 8, UniProt O40947); assay: inhibitors of C-LANA binding to LBS DNA, dose response, biochemical, fluorescence polarization, cherry-picked samples (AID 504725); set-up: species or system Human gammaherpesvirus 8;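 note: fluorescence polarization of a labeled DNA duplex reporting LANA DNA binding; potency is for inhibitors that block LANA binding to the DNA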
[14] = fluorescence interference artefacts, compound only, dose response, artefact control for cardiac thin filament activator project, biochemical, no RTF in test wells (AID 504697)
[15] = biological target: Alkaline phosphatase, placental type (Homo sapiens, UniProt P05187); assay: PLAP enzyme inhibitors, confirmation, biochemical, luminescence (AID 1512); format: functional
[16] = biological target: Dual specificity protein phosphatase 3 (Homo sapiens, UniProt P51452); assay: SAR VHR1 Fluorescent Assay for In Vitro dose response studies Set 2. [Related pubchem assays (depositor defined):AID1654, AID1661, AID1878]; format: functional
[17] = biological target: T1, Tyrosine-protein phosphatase non-receptor type 7 (Homo sapiens, UniProt P35236); assay: SAR analysis of chemical inhibitors of HePTP using a Fluorescent assay - Set 2. [Related pubchem assays (depositor defined):AID1059, AID1077, AID1661, AID2085, AID521]; format: functional
T1 sequence (P35236 whole entry): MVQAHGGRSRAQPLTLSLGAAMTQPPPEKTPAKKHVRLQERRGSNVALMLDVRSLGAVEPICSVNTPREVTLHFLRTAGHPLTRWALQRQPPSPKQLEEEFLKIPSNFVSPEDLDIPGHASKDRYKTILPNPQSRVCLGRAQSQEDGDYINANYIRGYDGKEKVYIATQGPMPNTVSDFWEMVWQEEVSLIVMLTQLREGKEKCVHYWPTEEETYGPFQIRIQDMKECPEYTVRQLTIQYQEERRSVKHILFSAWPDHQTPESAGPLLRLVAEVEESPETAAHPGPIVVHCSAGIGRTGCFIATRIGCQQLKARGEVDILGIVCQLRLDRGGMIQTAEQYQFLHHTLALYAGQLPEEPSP

[18] = cytotoxicity toward DRD oncogenic fibroblasts, dose response, cell-based, non-viral oncogenic, luminescence (AID 1934); format: functional; settings: Homo sapiens
[19] = tested on: INS1; assay: beta cell apoptosis inhibitors, cytokine rescue, dose response, luminescence, retest (AID 449756); format: functional, cell-based; settings: Rattus norvegicus;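 note: cell death triggered by IL-1 beta plus TNF-alpha plus IFN-gamma mixture; protective hits raise ATP signal compared with cytokine alone wells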
[20] = NIH-3T3 fibroblast cytotoxicity, dose response, cytotoxicity control, cell-based, fluorescence, Alamar Blue, secondary assay (AID 2327); format: functional;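 note: NIH-3T3 mouse fibroblasts cultured with fluconazole at 8 µg/mL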
[21] = biological target: CAAX prenyl protease 2 (Saccharomyces cerevisiae S288c, UniProt Q03530); format: biochemical
[22] = tested on: BJ; assay: cytotoxicity toward BJ-TERT fibroblasts, dose response, cell-based, RAS-independent, luminescence (AID 1933); format: functional; settings: Homo sapiens
[23] = tested on: BJ; assay: cytotoxicity toward BJ-TERT-LT-ST fibroblasts, dose response, cell-based, RAS-independent, luminescence (AID 1935); format: functional; settings: Homo sapiens;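 note: BJ fibroblasts immortalized with TERT plus LT and ST oncogenes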
[24] = Luminescence Cell-Based Dose Response HTS to Identify Inhibitors of 5'UTR Stem-Loop Driven Prion Protein mRNA Translation in H4 Neuroglioblastoma Cells. [Related pubchem assays: 1827 (Project Summary), 1813 (Primary HTS)]; format: functional
[25] = tested on: BJ; assay: cells; format: functional, cell-based; settings: Homo sapiens
[26] = inhibitors of SNCA 5'UTR-driven reporter translation, confirmation, H4 neuroglioma cells, luminescence (AID 1988); format: functional, cell-based
[27] = inhibitors of firefly luciferase expression or activity, dose response, H4 neuroglioma cells, luminescence (AID 1990); format: functional, cell-based
[28] = C. albicans growth with fluconazole, confirmation, fluorescence, retest (AID 2467); format: functional, cell-based
[29] = biological target: T2, Cannabinoid receptor 2 (Homo sapiens, UniProt P34972); assay: SAR analysis of agonists of the Cannabinoid Receptor 2 using an Image-Based Assay - Set 2. [Related pubchem assays (depositor defined):AID1961, AID1965]; format: functional
[30] = biological target: G-protein coupled receptor 55 (Homo sapiens, UniProt Q9Y2T6); assay: SAR analysis of selective Agonists of GPR55 using an Image-Based Assay - Set 2. [Related pubchem assays (depositor defined):AID1961, AID1965]; format: functional
[31] = biological target: T3, G-protein coupled receptor 35 (Homo sapiens, UniProt Q9HC97); assay: SAR analysis of Antagonists of the GPR35 Receptor using an Image-Based Assay - Set 4. [Related pubchem assays (depositor defined):[…]]; format: functional
[32] = biological target: T2, Cannabinoid receptor 2; assay: SAR analysis of antagonists of the Cannabinoid Receptor 2 using an Image-Based Assay - Set 2. [Related pubchem assays (depositor defined):AID1961, AID1965]; format: functional
[33] = biological target: T4, Cannabinoid receptor 1 (Homo sapiens, UniProt P21554); assay: SAR analysis of agonists of the Cannabinoid Receptor 1 using an Image-Based Assay - Set 3. [Related pubchem assays (depositor defined):AID1961, AID1965]; format: functional
[34] = biological target: T3, G-protein coupled receptor 35; assay: SAR analysis of Agonists of the GPR35 Receptor using an Image-Based Assay - Set 3. [Related pubchem assays (depositor defined):AID1961, AID1965]; format: functional
[35] = biological target: T4, Cannabinoid receptor 1; assay: SAR analysis of antagonists of the Cannabinoid Receptor 1 using an Image-Based Assay - Set 3. [Related pubchem assays (depositor defined):AID1961, AID1965]; format: functional
[36] = A small molecule screen for inhibitors of the PhoP region in Salmonella typhi (5) using purified and synthesized compounds. [Related pubchem assays (depositor defined):AID1850, AID1864, AID1985, AID2252, AID2384, AID2612, AID2811, AID434995]; format: functional
[37] = biological target: Sphingosine 1-phosphate receptor 4 (Homo sapiens, UniProt O95977); assay: Late-stage fluorescence dose response cell-based assay to identify agonists of the Sphingosine 1-Phosphate Receptor 4 (S1P4): purchased compounds EC50. [Related pubchem assays (depositor defined):AID1509, AID1523, AID1563, AID1686, AID1701, AID1801]; format: functional
[38] = biological target: Intestinal-type alkaline phosphatase (Homo sapiens, UniProt P09923); assay: human intestinal alkaline phosphatase activators, dose response, biochemical, luminescence, uHTS hits (AID 463120); format: functional
Chain of Intestinal-type alkaline phosphatase (P09923 whole entry): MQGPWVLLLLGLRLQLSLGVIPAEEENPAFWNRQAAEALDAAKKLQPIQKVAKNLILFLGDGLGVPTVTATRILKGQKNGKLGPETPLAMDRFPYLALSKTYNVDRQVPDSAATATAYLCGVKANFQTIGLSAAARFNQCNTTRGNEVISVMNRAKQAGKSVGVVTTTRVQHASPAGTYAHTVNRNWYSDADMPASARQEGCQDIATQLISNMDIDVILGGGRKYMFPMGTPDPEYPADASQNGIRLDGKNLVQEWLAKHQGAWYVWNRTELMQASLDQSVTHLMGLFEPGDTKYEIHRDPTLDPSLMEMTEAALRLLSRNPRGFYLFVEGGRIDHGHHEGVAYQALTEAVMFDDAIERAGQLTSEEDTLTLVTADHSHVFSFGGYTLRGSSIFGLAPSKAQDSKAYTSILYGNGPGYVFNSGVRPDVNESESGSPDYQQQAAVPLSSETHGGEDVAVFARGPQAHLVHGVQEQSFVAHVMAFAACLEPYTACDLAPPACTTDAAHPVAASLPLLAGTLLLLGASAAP

T4 sequence (P21554 whole entry): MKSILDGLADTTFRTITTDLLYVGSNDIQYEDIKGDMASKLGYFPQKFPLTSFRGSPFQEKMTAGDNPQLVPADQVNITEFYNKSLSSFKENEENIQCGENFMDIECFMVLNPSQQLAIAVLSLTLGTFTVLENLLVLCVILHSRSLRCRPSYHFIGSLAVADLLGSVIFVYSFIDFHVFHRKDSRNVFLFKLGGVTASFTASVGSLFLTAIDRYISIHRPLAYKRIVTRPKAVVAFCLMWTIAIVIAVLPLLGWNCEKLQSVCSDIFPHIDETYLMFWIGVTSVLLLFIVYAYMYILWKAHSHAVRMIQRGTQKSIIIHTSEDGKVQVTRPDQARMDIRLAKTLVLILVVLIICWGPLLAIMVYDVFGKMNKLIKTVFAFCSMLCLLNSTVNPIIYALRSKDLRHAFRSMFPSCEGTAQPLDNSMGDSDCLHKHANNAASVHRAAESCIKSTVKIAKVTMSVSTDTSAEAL
T3 sequence (Q9HC97 whole entry): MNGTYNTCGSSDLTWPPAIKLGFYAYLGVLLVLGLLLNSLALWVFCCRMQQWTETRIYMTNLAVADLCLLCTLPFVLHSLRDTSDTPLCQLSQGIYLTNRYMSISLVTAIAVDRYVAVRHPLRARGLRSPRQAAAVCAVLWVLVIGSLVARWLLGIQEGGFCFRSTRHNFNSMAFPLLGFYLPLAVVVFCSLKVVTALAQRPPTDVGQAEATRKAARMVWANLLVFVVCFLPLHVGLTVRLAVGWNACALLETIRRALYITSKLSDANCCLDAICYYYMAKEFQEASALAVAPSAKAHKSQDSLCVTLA
T2 sequence (P34972 whole entry): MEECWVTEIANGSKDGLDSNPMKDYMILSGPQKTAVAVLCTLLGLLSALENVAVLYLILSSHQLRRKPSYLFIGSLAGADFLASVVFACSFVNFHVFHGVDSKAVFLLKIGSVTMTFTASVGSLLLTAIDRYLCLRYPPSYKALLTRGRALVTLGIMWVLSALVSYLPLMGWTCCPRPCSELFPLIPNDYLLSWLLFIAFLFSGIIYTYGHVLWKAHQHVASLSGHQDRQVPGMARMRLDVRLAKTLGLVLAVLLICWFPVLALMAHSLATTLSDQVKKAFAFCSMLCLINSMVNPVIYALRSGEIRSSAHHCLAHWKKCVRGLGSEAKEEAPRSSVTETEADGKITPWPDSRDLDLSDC
Chain of CAAX prenyl protease 2 (Q03530 whole entry): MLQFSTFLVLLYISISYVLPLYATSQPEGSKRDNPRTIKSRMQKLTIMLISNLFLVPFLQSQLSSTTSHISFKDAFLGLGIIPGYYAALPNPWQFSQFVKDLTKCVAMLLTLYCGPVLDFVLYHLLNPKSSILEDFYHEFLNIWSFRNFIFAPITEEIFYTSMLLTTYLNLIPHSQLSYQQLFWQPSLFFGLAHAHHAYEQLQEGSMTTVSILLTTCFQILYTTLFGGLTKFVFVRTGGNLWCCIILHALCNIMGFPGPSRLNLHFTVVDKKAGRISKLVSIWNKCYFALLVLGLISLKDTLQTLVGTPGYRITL
Chain of Alkaline phosphatase, placental type (P05187 whole entry): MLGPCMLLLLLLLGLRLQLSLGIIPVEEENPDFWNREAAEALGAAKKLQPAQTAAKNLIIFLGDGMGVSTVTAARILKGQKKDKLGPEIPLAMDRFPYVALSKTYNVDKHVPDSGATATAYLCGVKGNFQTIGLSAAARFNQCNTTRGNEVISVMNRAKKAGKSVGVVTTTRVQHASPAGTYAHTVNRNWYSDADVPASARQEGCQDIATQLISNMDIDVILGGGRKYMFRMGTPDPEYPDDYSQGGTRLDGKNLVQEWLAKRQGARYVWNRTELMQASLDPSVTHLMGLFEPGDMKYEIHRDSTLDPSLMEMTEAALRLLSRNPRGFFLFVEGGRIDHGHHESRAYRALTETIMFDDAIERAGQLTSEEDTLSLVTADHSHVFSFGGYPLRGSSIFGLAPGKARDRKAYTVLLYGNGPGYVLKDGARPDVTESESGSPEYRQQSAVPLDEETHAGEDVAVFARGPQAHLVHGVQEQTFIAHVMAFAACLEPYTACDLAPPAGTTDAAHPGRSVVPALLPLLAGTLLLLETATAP
Chain of DNA damage-inducible transcript 3 protein (P35639 whole entry): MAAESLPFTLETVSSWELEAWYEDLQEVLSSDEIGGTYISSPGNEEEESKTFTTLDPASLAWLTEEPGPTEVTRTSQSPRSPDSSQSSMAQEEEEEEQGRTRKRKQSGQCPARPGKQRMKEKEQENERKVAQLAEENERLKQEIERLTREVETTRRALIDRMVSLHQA
Chain of Keap1/Nrf2 (Q16236 whole entry): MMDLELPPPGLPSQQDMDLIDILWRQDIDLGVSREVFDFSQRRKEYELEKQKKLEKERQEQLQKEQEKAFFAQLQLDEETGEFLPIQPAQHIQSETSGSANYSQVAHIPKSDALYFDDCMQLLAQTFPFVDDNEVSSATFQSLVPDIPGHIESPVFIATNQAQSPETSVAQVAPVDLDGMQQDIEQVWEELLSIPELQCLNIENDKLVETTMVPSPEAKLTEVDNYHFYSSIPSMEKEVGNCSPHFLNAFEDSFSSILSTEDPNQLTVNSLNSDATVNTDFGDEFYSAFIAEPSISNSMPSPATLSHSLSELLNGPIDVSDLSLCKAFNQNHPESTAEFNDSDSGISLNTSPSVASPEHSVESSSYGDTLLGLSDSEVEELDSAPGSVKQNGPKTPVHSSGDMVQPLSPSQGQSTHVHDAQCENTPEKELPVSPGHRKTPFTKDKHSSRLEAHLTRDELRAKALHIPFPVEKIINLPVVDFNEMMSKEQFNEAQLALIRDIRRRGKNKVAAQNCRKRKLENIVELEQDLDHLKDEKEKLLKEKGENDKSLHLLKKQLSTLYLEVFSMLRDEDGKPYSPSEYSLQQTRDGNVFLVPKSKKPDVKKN
Chain of Keap1/Nrf2 (Q14145 whole entry): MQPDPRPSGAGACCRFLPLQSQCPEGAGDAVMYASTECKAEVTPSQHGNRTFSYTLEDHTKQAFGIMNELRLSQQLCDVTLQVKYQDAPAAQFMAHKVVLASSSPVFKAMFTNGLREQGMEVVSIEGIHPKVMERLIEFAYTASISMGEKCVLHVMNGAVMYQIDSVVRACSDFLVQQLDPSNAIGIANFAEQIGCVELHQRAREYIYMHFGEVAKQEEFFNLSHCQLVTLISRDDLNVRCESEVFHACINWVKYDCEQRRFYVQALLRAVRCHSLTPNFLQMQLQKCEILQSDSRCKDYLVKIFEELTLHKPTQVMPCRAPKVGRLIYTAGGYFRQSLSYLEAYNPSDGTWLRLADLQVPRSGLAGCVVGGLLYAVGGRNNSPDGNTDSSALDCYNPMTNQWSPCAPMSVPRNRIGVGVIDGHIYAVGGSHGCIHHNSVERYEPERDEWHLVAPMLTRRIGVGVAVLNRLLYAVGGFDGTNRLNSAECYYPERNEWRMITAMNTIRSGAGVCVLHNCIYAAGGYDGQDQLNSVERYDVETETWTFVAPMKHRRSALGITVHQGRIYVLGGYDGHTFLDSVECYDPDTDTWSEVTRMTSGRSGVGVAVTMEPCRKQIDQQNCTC
Chain of X-box-binding protein 1 (P17861 whole entry): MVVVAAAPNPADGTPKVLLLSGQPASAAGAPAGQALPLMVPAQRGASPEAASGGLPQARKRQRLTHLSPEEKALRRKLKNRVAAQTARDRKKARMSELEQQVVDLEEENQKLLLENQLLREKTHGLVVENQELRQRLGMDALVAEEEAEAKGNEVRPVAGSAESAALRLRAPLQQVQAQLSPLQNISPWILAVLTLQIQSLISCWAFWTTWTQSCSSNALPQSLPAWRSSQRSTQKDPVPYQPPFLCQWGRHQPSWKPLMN
Chain of G-protein coupled receptor 55 (Q9Y2T6 whole entry): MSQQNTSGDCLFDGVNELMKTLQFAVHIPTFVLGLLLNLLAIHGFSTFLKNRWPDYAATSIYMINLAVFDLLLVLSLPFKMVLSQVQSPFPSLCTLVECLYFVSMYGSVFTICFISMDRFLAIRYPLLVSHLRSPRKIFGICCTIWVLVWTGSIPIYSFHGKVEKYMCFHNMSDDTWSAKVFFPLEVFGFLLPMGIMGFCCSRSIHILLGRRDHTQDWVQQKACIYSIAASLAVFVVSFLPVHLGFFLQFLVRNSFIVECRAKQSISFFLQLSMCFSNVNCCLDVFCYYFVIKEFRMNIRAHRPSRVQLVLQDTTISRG
Chain of Dual specificity protein phosphatase 3 (P51452 whole entry): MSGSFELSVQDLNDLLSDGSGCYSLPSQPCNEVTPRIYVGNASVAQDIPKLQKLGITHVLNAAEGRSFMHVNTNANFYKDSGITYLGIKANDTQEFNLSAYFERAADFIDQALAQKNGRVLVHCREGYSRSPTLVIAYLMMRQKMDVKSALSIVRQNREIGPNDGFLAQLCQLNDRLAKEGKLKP

Which “Absolute IC50 (CHOP)” value [1] does the source give for Nc1cccc2c1C(=O)N(C(=O)/C=C/c1cccc(F)c1)C2=O here?
The value was < 10 µM.

And the IC50 [2]?
Its IC50 is > 100 µM (active).

And the “Absolute IC50 (XBP1)” value [3]?
Its value is 10 µM.

Which results are given for COc1ccc2c(c1)sc(N)[n+]2Cc1cc(C)cc2cccnc12?
EC50 [4]: 10.3 µM (active); EC50 [5]: 0.711 µM (inconclusive); EC50 [6]: 0.711 µM (active); EC50 [7]: 6.36 µM (inconclusive); EC50 [8]: 10.3 µM (inconclusive); EC50 [9]: 6.36 µM (active)

For CN1CC=C2C(C#N)=C(N)C(C#N)(C#N)[C@H](c3ccoc3)[C@H]2C1, which EC50 [10] is on record?
Its EC50 is 8.32 µM (active).

What about the AC50 [11] of the same compound?
The AC50 was 79 µM (active).

What about the AC50 [12] of the same compound?
The AC50 was 47.9 µM (active).

What about the AC50 [13] of the same compound?
The AC50 was 58.9 µM (active).

What about the EC50 [14] of the same compound?
Its EC50 is > 7.94 µM (active).

With Cc1ccc(NC(S)=NNC(=O)c2c(Cl)c(C)nn2C)cc1 as the compound, how does the IC50 [15] read?
The IC50 was > 100 µM (inactive).

And the IC50 [16]?
Its IC50 is > 100 µM (inactive).

And the IC50 [17]?
The IC50 was > 100 µM (inactive).

With Cc1ccc(-c2cc(-c3ccccc3)cc(-c3ccccc3)[n+]2-c2ccccc2)cc1.[O-][Cl+3]([O-])([O-])[O-] as the compound, how does the EC50 [18] read?
Its EC50 is 6.7 µM (active).

And the AC50 [19]?
The AC50 was 1.89 µM (active).

And the EC50 [20]?
Its EC50 is 43.8 µM (active).

What about the AC50 [21] of the same compound?
The AC50 was 29.1 µM (active).

And the EC50 [22]?
Its EC50 is 4.34 µM (active).

What about the EC50 [23] of the same compound?
Its EC50 is 4.96 µM (active).

And the EC50 [24]?
The EC50 was > 120 µM (not active).

What about the EC50 [25] of the same compound?
The EC50 was 7.64 µM (active).

And the EC50 [26]?
Its EC50 is 10.7 µM (active).

What about the EC50 [27] of the same compound?
Its EC50 is > 120 µM (not active).

What about the EC50 [28] of the same compound?
Its EC50 is 0.378 µM (active).

Which EC50 [29] does the source give for CCc1sc(C(=O)Nc2cc(S(=O)(=O)N3CCOCC3)ccc2OC)cc1C here?
Its EC50 is > 32 µM (inactive).

And the EC50 [30]?
Its EC50 is > 32 µM (inactive).

And the IC50 [31]?
The IC50 was > 32 µM (inactive).

What about the IC50 [32] of the same compound?
Its IC50 is > 32 µM (inactive).

And the EC50 [33]?
Its EC50 is > 32 µM (inactive).

And the EC50 [34]?
Its EC50 is > 32 µM (inactive).

What about the IC50 [35] of the same compound?
Its IC50 is > 32 µM (inactive).

Which IC50 [36] does the source give for COc1cccc(NC(=O)N2CCCN(Cc3ccccc3F)C2)c1 here?
The IC50 was > 150 µM (active).

Which EC50 [37] does the source give for CCNC(=O)NC(=O)C(C)OC(=O)c1cc2c(C)nn(Cc3ccc(Cl)cc3)c2s1 (stereo not drawn) here?
Its EC50 is > 50 µM (inactive).

With COc1cc(/C=N\NS(=O)(=O)c2ccccc2)cc(OC)c1OC as the compound, how does the EC50 [38] read?
The EC50 was > 100 µM (inactive).
